Usually IC50 stands for the concentration that gives 50% inhibition.

The source of these data is patent publication US20220144812A1, “QUINOLINE DERIVATIVES AND THEIR USE FOR THE TREATMENT OF CANCER” (Epizyme, Inc., priority 2019, published 2022).

Molecules are shown by their SMILES.

In experiment [1] the test system is TCCSUP bladder cell line. As to the kind of experiment: 7-day proliferation assay, TCCSUP. The experiment is classed as cell-based. The conditions noted are these: Homo sapiens, TCC-SUP, 168 h, 7 days, CellTiter-Glo. How it is done: (§1) This example describes methods and materials for 7-day proliferation assay.
(§2) A total of 22 bladder cell lines were used (see table below). Cell lines were cultured in recommended growth media according to supplier.
(§3) Cells were in culture media at a density optimized for a 7-day culture in a final volume of 150 μL per well in white opaque 96-well plates. Cells were allowed to adhere for several hours (4-6 h) then compounds were added with HPD300 Digital Dispenser and placed into the incubator at 37° C., 5% CO2 for 7 days. After 7 days incubation, 100 μL of CellTiter-Glo® Luminescent Cell Viability Assay (Promega-G7573) reagents were added per well. After 20 minutes incubation luminescence was measured in plate reader. IC50 were calculated from a non-linear logarithmic growth curve.
(§4) IC50 values (nanomolar (nM)) are summarized in the table below, which depicts the inhibitory effect of certain compounds in bladder cell lines.
In general terms: ATP-based viability assays read luminescence as a measure of living cells.

Experiment [2] concerns CAL29 bladder cell line. The experiment in a line: 7-day proliferation assay, CAL29. The conditions noted are these: 168 h; CAL29, 7 days, CellTiter-Glo. The experiment is classed as cell-based. How it is done:
as §1, §2, §3, §4

Experiment [3] relates to SW1710 bladder cell line. The experiment in a line: 7-day proliferation assay, SW1710. The conditions noted are these: Homo sapiens, 168 h; SW1710, 7 days, CellTiter-Glo. The experiment is classed as cell-based. How it is done:
as §1, §2, §3, §4

In experiment [4] the target is T1, EP300 (P300(1048-1664)) (Homo sapiens, UniProt Q09472).
T1 construct: P300(1048-1664)
T1 sequence (Q09472 1048-1664): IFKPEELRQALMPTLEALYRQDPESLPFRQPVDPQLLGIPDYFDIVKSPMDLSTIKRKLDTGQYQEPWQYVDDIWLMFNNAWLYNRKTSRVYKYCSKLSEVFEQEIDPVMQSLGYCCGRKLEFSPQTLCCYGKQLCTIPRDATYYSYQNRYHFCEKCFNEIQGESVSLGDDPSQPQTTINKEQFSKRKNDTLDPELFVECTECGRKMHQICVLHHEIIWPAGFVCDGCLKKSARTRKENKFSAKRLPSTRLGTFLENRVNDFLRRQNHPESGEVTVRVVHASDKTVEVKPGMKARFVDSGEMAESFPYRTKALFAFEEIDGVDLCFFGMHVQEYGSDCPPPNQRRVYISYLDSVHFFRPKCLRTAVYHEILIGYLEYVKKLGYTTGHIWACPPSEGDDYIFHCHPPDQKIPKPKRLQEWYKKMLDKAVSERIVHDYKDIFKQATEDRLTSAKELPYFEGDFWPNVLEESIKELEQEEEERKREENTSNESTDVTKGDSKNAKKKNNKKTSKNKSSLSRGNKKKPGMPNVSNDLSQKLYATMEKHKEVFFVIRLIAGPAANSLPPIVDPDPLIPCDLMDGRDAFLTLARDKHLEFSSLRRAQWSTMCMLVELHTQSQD
As to the kind of experiment: Biochemical assay for EP300, SAMDI. The conditions noted are these: EP300, SAMDI; read-out: EP300 Biochemistry IC50. The source says:
The following example describes materials and methods relating to a biochemical assay for EP300. IC50 values (micromolar (μM)) are summarized in Table 1, Table 2, and Table 3 under the column labeled: “EP300 Biochemistry IC50 (micromolar).”

The subject of experiment [5] is SW780 bladder cell line. The experiment in a line: 7-day proliferation assay, SW780. Type of experiment: cell-based. The conditions noted are these: Homo sapiens, 168 h; SW780, 7 days, CellTiter-Glo. The procedure: as §1, §2, §3, §4
The subject of experiment [6] is SCABER bladder cell line. The experiment in a line: 7-day proliferation assay, SCABER. Type of experiment: cell-based. The conditions noted are these: Homo sapiens, 168 h, 7 days, CellTiter-Glo. How it is done:
as §1, §2, §3, §4

The test system of experiment [7] is VMCUB1 bladder cell line. The experiment in a line: 7-day proliferation assay, VMCUB1. Type of experiment: cell-based. The conditions noted are these: Homo sapiens, VM-CUB-1, 168 h; VMCUB1, 7 days, CellTiter-Glo. How it is done: as §1, §2, §3, §4
Experiment [8] deals with HB-CLS-2 bladder cell line. The experiment in a line: 7-day proliferation assay, HB-CLS-2. The experiment is classed as cell-based. The conditions noted are these: 168 h; HB-CLS-2, 7 days, CellTiter-Glo. How it is done:
as §1, §2, §3, §4

Experiment [9] deals with KMBC2 bladder cell line. As to the kind of experiment: 7-day proliferation assay, KMBC2. The experiment is classed as cell-based. The conditions noted are these: 168 h; KMBC2, 7 days, CellTiter-Glo. How it is done:
as §1, §2, §3, §4

The subject of experiment [10] is 5637 bladder cell line. The experiment in a line: 7-day proliferation assay, 5637. The experiment is classed as cell-based. The conditions noted are these: 168 h; 5637, 7 days, CellTiter-Glo. The procedure: as §1, §2, §3, §4
The subject of experiment [11] is 647V bladder cell line. As to the kind of experiment: 7-day proliferation assay, 647V. Type of experiment: cell-based. The conditions noted are these: Homo sapiens, 168 h, 7 days, CellTiter-Glo. How it is done:
as §1, §2, §3, §4

The test system of experiment [12] is 639V bladder cell line. As to the kind of experiment: 7-day proliferation assay, 639V. Type of experiment: cell-based. The conditions noted are these: Homo sapiens, 168 h, 7 days, CellTiter-Glo. The procedure:
as §1, §2, §3, §4

Experiment [13] has as its system BFTC905 bladder cell line. The experiment in a line: 7-day proliferation assay, BFTC905. Type of experiment: cell-based. The conditions noted are these: Homo sapiens, BFTC-905, 168 h; BFTC905, 7 days, CellTiter-Glo. How it is done:
as §1, §2, §3, §4

In experiment [14] the test system is RT112 bladder cell line. The experiment in a line: 7-day proliferation assay, RT112. The experiment is classed as cell-based. The conditions noted are these: Homo sapiens, RT-112, 168 h; RT112, 7 days, CellTiter-Glo. How it is done:
as §1, §2, §3, §4

For experiment [15], the system named is HT1376 bladder cell line. As to the kind of experiment: 7-day proliferation assay, HT1376. Type of experiment: cell-based. The conditions noted are these: Homo sapiens, HT-1376, 168 h; HT1376, 7 days, CellTiter-Glo. The procedure: as §1, §2, §3, §4
Experiment [16] deals with KU1919 bladder cell line. The experiment in a line: 7-day proliferation assay, KU1919. Type of experiment: cell-based. The conditions noted are these: Homo sapiens, KU-19-19, 168 h; KU1919, 7 days, CellTiter-Glo. How it is done:
as §1, §2, §3, §4

As to `CCn1ncc(CN(C)C(=O)c2cc(-c3ccc(NCCNC)c(C)n3)nc3ccc(Cl)cc23)c1C` [Compound 3, 6-chloro-N-[(1-ethyl-5-methyl-1H-pyrazol-4-yl)methyl]-N-methyl-2-(6-methyl-5-{[2-(methylamino)ethyl]amino}pyridin-2-yl)quinoline-4-carboxamide], the IC50 in [1] turned out to be 7600 nM; in [2] it was 1990 nM; in experiment [3], 290 nM; in [4], 4.4 nM; in experiment [5], 228 nM; in experiment [6], 249 nM. In addition, the IC50 in [7] was found to be 69 nM; in [8], 220 nM; in experiment [9], 7640 nM; in [10] it was 133 nM; in [11] it was 127 nM; in experiment [12], 40 nM. Besides, the 50% inhibitory concentration (IC50) in experiment [13] was determined as 122 nM; in experiment [14], 111 nM; in experiment [15], 3890 nM; in experiment [16], 145 nM.
Turning to `CCn1ncc(CN(C)C(=O)c2cc(-c3ccc(NC4CN(C)C4)c(C)n3)nc3ccc(Cl)cc23)c1C` [Compound 480], the IC50 in experiment [1] was 10000 nM; in [2], 524 nM; in [3], 184 nM; in [4], 6.5 nM; in experiment [5], 126 nM; in [6] it was 172 nM. Moreover, the IC50 turned out to be 116 nM in [7]; 344 nM in experiment [8]; 1810 nM in [9]; 147 nM in experiment [10]; 52 nM in experiment [11]; 57 nM in [12]. The IC50 in [13] was found to be 110 nM; in experiment [14], 198 nM; in experiment [15], 1250 nM; in experiment [16], 90.5 nM.
Consider `CCc1noc(CN(C)C(=O)c2cc(-c3ccc(NCCNC)c(C)n3)nc3ccc(Cl)cc23)c1C` [Compound 537], for which the IC50 worked out at 10000 nM in experiment [1]; 704 nM in experiment [2]; 190 nM in experiment [3]; 22 nM in experiment [4]; 322 nM in [5]; 252 nM in [6]. Moreover, the IC50 in [7] worked out at 116 nM; in experiment [8], 434 nM; in experiment [9], 1600 nM; in experiment [10] it was 197 nM; in [11], 125 nM; in experiment [12], 99.5 nM. Besides, the half-maximal inhibitory concentration (IC50) is 224 nM in experiment [13], 370 nM in experiment [14], 2760 nM in [15] and 217 nM in [16].
Consider `CCc1ncc(CN(C)C(=O)c2cc(-c3ccc(NCCN(C)C)c(C)n3)nc3ccc(Cl)cc23)n1C` [Compound 577], for which the IC50 in experiment [1] was 10000 nM; in experiment [2] it was 1200 nM; in experiment [3] it was 143 nM; in [4], 18.7 nM; in [5], 168 nM; in [6] it was 182 nM. Moreover, the IC50 in experiment [7] worked out at 51 nM; in experiment [8], 240 nM; in experiment [9] it was 896 nM; in experiment [10], 111 nM; in experiment [11] it was 53.5 nM; in experiment [12], 100 nM. The IC50 in experiment [13] stood at 132 nM; in experiment [14], 78 nM; in [15] it was 2070 nM; in [16], 102 nM.
